Results taken from US9187515B2, “2′,4′-fluoro nucleosides for the treatment of HCV” (Idenix Pharmaceuticals, Inc., priority 2013, dated 2015).

Experiments:
[1] = target: T1, HCV genotype 1b NS5B protein containing the S282T mutation (Hepatitis C virus genotype 1b, UniProt Q9WMX2, S2701T); experiment: HCV polymerase enzyme assay, S282T mutant; type: biochemical; conditions: nucleoside triphosphate; S282T genotype 1b NS5B; 2 h at 30° C.
T1 construct: HCV genotype 1b NS5B protein were used to generate recombinant HCV polymerases (with a deletion of the 21 carboxy terminal amino acids); made in house
From the text: (§1) Test compounds in the form of nucleoside triphosphates were examined for inhibitory activity against purified HCV polymerase in a standard assay. Bacterial expression constructs encoding the approximately 65 kDa HCV genotype 1b NS5B protein were used to generate recombinant HCV polymerases (with a deletion of the 21 carboxy terminal amino acids). Both the wild-type genotype 1b protein and protein containing the S282T mutation were expressed and purified for use in the enzymatic activity assay.
(§2) The enzymatic activity assay measured the inhibitory effect of increasing concentrations of test compound on the incorporation of α-[^33P]-labeled nucleotide into trichloroacetic acid-precipitable material. Recombinant polymerase and synthetic RNA template were combined in reaction buffer containing ribonucleoside triphosphates, α-[^33P]-labeled nucleotide and eight concentrations of test compound in three-fold dilutions. […]
(§3) Reactions were terminated by the addition of ice-cold trichloroacetic acid and sodium pyrophosphate to promote precipitation of newly-synthesized ribonucleic acid. Precipitable material from the reactions was collected by filtration onto 96-well filter plates, washed extensively with water, and quantified by liquid scintillation.
(§4) The inhibitory activity of test compounds was determined by fitting results to dose-response curves using XLfit software.

[2] = target: T2, wild-type HCV genotype 1b NS5B protein (recombinant HCV polymerase) (Hepatitis C virus genotype 1b, UniProt Q9WMX2); experiment: HCV polymerase enzyme assay, wild-type; type: biochemical
T2 construct: HCV genotype 1b NS5B protein were used to generate recombinant HCV polymerases (with a deletion of the 21 carboxy terminal amino acids); made in house
From the text: as §1, §2, §3, §4

[3] = system: HCV genotype 1b replicon in Huh-7-derived cell line (Zluc); experiment: HCV replicon assay (luciferase reporter); type: cell-based; conditions: Hepatitis C virus; Zluc cells, 72 hours of incubation
Description: Huh-7-derived cell line (Zluc) that harbors an HCV genotype 1b replicon and a luciferase reporter gene was grown in Dulbecco's Modified Eagle Medium (DMEM) supplemented with 10% fetal bovine serum, 2 mM GlutaMAX, 1% MEM nonessential amino acids, 100 IU/mL penicillin, 100 μg/mL streptomycin, and 0.5 mg/mL Geneticin® (G418). For dose response testing the cells were seeded in 96-well plates at 7.5×10^3 cells per well in a volume of 50 μL, and incubated at 37° C./5% CO2. Drug solutions were made up freshly in Huh-7 media as 2× stocks. Ten additional 5-fold dilutions were prepared from these stocks in DMEM without G418. At least three hours after Zluc cells were seeded, drug treatment was initiated by adding 50 μL of drug dilutions to the plates in duplicate. Final concentrations of drug ranged from 100 μM to 0.0000512 μM. Cells were then incubated at 37° C./5% CO2. Alternatively, compounds were tested at two concentrations (1 μM and 10 μM). […] For this, media was removed from the plates via gentle tapping. […] The plates were shaken gently for 3 min at room temperature and luminescence was measured on a Victor^3 V 1420 multilabel counter (Perkin Elmer) with a 1 second read time using a 700 nm cut-off filter. The EC50 values were calculated from dose response curves from the resulting best-fit equations determined by Microsoft Excel and XLfit 4.1 software. […]

[4] = Cytotoxicity evaluation, CellTiter-Blue Cell Viability Assay; type: cell-based; conditions: human, Zluc cells

Nc1ccn([C@@H]2O[C@](F)(COP(=O)(O)OP(=O)(O)OP(=O)(O)O)[C@@H](O)[C@H]2F)c(=O)n1 [Compound 205]
IC50 [1]: < 250 nM
IC50 [2]: < 250 nM

O=c1ccn([C@@H]2O[C@](F)(COP(=O)(O)OP(=O)(O)OP(=O)(O)O)[C@@H](O)[C@H]2F)c(=O)[nH]1 [Compound 201]
IC50 [1]: < 250 nM
IC50 [2]: 250 to 1000 nM

O=c1ccn([C@@H]2O[C@](F)(CO)[C@@H](O)[C@H]2F)c(=O)[nH]1 [Compound 101, 1-((2R,3R,4S,5S)-3,5-difluoro-4-hydroxy-5-(hydroxymethyl)tetrahydrofuran-2-yl)pyrimidine-2,4(1H,3H)-dione]
EC50 [3]: > 10000 nM
CC50 at 72 h [4]: > 50000 nM

Nc1ccn([C@@H]2O[C@](F)(CO)[C@@H](O)[C@H]2F)c(=O)n1 [Compound 105]
EC50 [3]: 250 to 1000 nM
CC50 at 72 h [4]: > 50000 nM
